Test results published in article PMC3905461 (Chembiochem : a European journal of chemical biology, 2013).
“And” between values parts separate entries of the source, which are not always exact repeats. Equal values may be shown once. Each block holds one compound with its values, some of them ahead of it.

Assays:
[1] = target: T1, RpaR (Rhodopseudomonas palustris, UniProt Q6NCZ5); test: RpaR agonism reporter gene assay; format: cell-based; details: for EC50: EC50 value, dose response in R. palustris CGA814 reporter; for activation at 1 µM: read-out: Percent activation; for Drop in agonistic activity relative to 1: compared with 2-fluoro cinnamoyl HL 1; for Percent activation: 1 μM synthetic ligand, relative to p-cAHL at 1 μM, triplicate of triplicate, error < ±10%
[2] = target: T1, RpaR; details: extracts from wild-type R. palustris grown with the aromatic acid; cited from earlier work
[3] = tested on: LuxR; details: V. fischeri LuxR; ref 7j, 7l; cited from earlier work
[4] = tested on: other LuxR-type receptors; details: ref 7j; cited from earlier work
[5] = target: T1, RpaR; test: Competitive RpaR antagonism reporter gene assay against p-cAHL; format: cell-based; details: for Percent inhibition: 1 μM synthetic ligand against p-cAHL at its EC50 value (1 nM), negative values indicate agonistic responses, error < ±10%

T1 sequence (Q6NCZ5 whole entry): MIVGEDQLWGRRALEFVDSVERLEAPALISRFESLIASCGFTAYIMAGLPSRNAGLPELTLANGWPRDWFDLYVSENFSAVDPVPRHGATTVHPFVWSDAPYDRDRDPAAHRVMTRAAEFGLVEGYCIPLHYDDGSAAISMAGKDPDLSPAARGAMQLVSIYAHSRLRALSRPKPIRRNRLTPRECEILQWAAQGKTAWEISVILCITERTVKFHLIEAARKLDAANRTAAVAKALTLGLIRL

Compound: O=C(/C=C/c1ccccc1F)N[C@H]1CCOC1=O [Compound 1, 2-fluoro cinnamoyl HL]
- EC50 [1]: 3.4 nM
- activation at 1 µM [1]: 99%

Compound: O=C(/C=C/c1cccc(F)c1)N[C@H]1CCOC1=O [Compound 2]
- EC50 [1]: 65.6 nM
- Drop in agonistic activity relative to 1 [1]: 20 fold
- activation at 1 µM [1]: 84%

Compound: O=C(/C=C/c1ccc(F)cc1)N[C@H]1CCOC1=O [Compound 3, 4-fluoro cinnamoyl HL]
- Agonistic activity at 1 μM ([1]; 1 μM): inactive
- Percent activation [1]: 1%

Compound: O=C(/C=C/c1c(F)cccc1F)N[C@H]1CCOC1=O [Compound 4, 2,6-difluoro cinnamoyl HL]
- EC50 [1]: 4.8 nM
- activation at 1 µM [1]: 101%

Compound: O=C(/C=C/c1ccccc1Br)N[C@H]1CCOC1=O [Compound 10, 2-bromo cinnamoyl HL]
- EC50 [1]: 77.1 nM
- Drop in agonistic activity relative to 1 [1]: ~ 20 fold
- activation at 1 µM [1]: 118%

Compound: O=C(/C=C/c1ccccc1O)N[C@H]1CCOC1=O [Compound 15, ortho-cAHL]
- EC50 [1]: 1170 nM
- activation at 1 µM [1]: 59%

Compound: O=C(/C=C/c1cccc(O)c1)N[C@H]1CCOC1=O [Compound 16, meta-cAHL]
- EC50 [1]: 144 nM
- activation at 1 µM [1]: 94%

Compound: O=C(/C=C/c1ccc(O)c(O)c1)N[C@H]1CCOC1=O [Compound 17, caffeoyl HL]
- Percent activation [1]: 14%

Compound: COc1cc(C=CC(=O)NC2CCOC2=O)ccc1O (stereo not shown) [Compound 18]
- RpaR agonist activity [2]: inactive

Compound: O=C(CCc1ccc(O)cc1)N[C@H]1CCOC1=O [Compound 19]
- EC50 [1]: 532 nM
- activation at 1 µM [1]: 72%
- EC50 value higher than p-cAHL ([1]; relative to p-cAHL): 500 fold

Compound: O=C(/C=C/c1ccccc1)N[C@H]1CCOC1=O [Compound B10, cinnamoyl HL]
- EC50 [1]: 32.3 nM
- activation at 1 µM [1]: 65%

Compound: O=C(CCC1CCCCC1)N[C@H]1CCOC1=O [Compound B11, cyclohexyl HL]
- LuxR antagonism [3]: strong antagonists

Compound: O=C(COc1ccccc1)N[C@H]1CCOC1=O [Compound E14, POHL]
- Activity as agonist or antagonist in other LuxR-type receptors [4]: largely inactive

Compound: O=C(COc1cccc([N+](=O)[O-])c1)N[C@H]1CCOC1=O [Compound E25, 3-NO2 POHL]
- LuxR antagonism [3]: strong antagonists
- IC50 [5]: 238 nM
- Percent inhibition [5]: 63%

Compound: O=C(CCc1ccc(F)cc1)N[C@H]1CCOC1=O [Compound E29, 4-F PPHL]
- LuxR antagonism [3]: strong antagonists
- IC50 [5]: 300 nM
- Percent inhibition [5]: 70%

Compound: O=C(CCc1ccc([N+](=O)[O-])cc1)N[C@H]1CCOC1=O [Compound E37, 4-NO2 PPHL]
- LuxR antagonism [3]: strong antagonists
- IC50 [5]: 235 nM
- Percent inhibition [5]: 89%

Compound: O=C(CCc1ccc2c(c1)OCO2)N[C@H]1CCOC1=O [Compound E39, 1,3-benzodioxole PPHL]
- IC50 [5]: 228 nM
- Percent inhibition [5]: 63%

- EC50 [1]: 1 nM and ~1 nM
Compound: O=C(/C=C/c1ccc(O)cc1)N[C@H]1CCOC1=O [p-cAHL, p-coumaroyl HL, reference compound]
